Like-named read-outs stand apart in the source and are kept apart here.
Assays:
[1] = system: HCA-7 and HT-29 colon cancer cells; experiment: Effect of agents on growth of colon cancer cells, range stated over both lines; assay type: cell-based; settings: Homo sapiens, 168 h, read-out: IC50 values (cell growth), range over both agents and both cell lines
Procedure: (§1) Cells were seeded (10^4 per well) in 24-well plates and cultured in DMEM containing Glutamax I (Life Technologies, Paisley, UK) and glucose (4.5 g l^−1) and 10% foetal calf serum (Gibco, Paisley, UK). […] Cells were counted 72, 96, 120, 144 and 168 h postaddition of agents using a Z2 Coulter Particle Count and Size Analyzer (Beckman Coulter, High Wycombe, UK). Control cultures contained the vehicle only. […] The IC50 values inserted in Figure 5 were calculated from the linear portion of the cell number-vs agent concentration curves at the 168 h time point.

[2] = Plasma and tissue levels in mice after a single intragastric dose; assay type: in vivo, mouse; settings: for peak concentration / AUC: mice, 240 mg/kg i.g.; for AUC: 0-120 min
Procedure: Animal experiments were conducted as stipulated by Project Licence 40/2496 granted by the UK Home Office. Experiments were vetted and approved by the Leicester University Animal Welfare Committee and complied with the UKCCCR guidelines for the welfare of animals in experimental neoplasia. […] The vehicle was glycerol formal, and the dose volume approximately 10 ml kg^−1. In the case of DMU 212, the vehicle also contained 10% DMSO. Mice were killed by terminal gaseous anaesthesia at 10, 30, 60 or 120 min postdosing. Blood was collected by cardiac puncture, and plasma was obtained by centrifugation. The liver, kidney, lung, heart, brain and gut were excised, and scrapings were obtained from small intestine and colon. Tissues were snap-frozen (liquid nitrogen) and stored at −80°C until analysis.
Tissues were homogenised (1 : 1 volume to tissue mass ratio) in 50 mM Hepes buffer (Sigma, Poole, UK) using a hand-held glass homogeniser. An aliquot (250 μl) of homogenate, to which an internal standard had been added was vortexed, followed by the addition of acetonitrile (1 ml). After vigorous shaking, mixtures were kept on ice (5–10 min) and centrifuged (2800 g, 10 min, 4°C). The supernatants were dried under a stream of nitrogen and reconstituted in mobile phase (100 μl).
(§2) HPLC analysis was performed using a Varian Prostar HPLC system (Varian, UK) with a Pro-Star 230 solvent delivery system, a Pro-Star 310 UV–Vis detector, a Pro-Star 363 Fluorescence detector, a 410 Varian autosampler and an Ultracarb C18 column (4.6 mm × 250 mm, 5 μm, Phenomenex, UK). The mobile phase consisted of the three components: aqueous ammonium acetate (pH 6.5, 50 mM), propan-2-ol and acetonitrile. […] The flow rate for both methods was 1 ml min^−1.
(§3) The injection volume of samples reconstituted in the mobile phase was 50 μl.
The curves were characterised by regression coefficients of R^2=0.99 or above. […] Therefore, metabolites were not quantitated.
The area under the plasma or tissue concentration vs time curve (AUC) values were calculated using the trapezoidal rule (WinNonlin v.1.1, Scientific Consultants, USA).

[3] = Incubation with mouse liver microsomes; assay type: in vitro ADME; settings: mouse liver microsomes 0.5 mg protein ml^−1, NADPH 1 mM, substrate 1 mM, 20 min, 37°C
Procedure: Microsomes were prepared by differential centrifugation of mouse liver homogenate first at 9 × 10^3 g (20 min, 4°C), then at 10^5 g (1 h) in a Beckman L-8-60 ultracentrifuge (Beckman Coulter UK Ltd, High Wycombe, Buckinghamshire, UK). The microsomal pellet was suspended in Tris buffer (50 mM, pH 7.4), recentrifuged at 10^5 g (1 h) and resuspended in Tris buffer. Liver microsomes from two to four mice were pooled. […] The addition of one volume of ice-cold methanol terminated the reaction. The mixture was vortexed (30 s), centrifuged (3 min, 13 400 g) and the supernatant was collected and analysed by HPLC.
as §2, §3

HT-29 colon cancer cells = experiment: Effect of agents on growth of HT-29 cells; assay type: cell-based; settings: Homo sapiens, read-out: IC50 (cell growth)
Procedure: as §1

HCA-7 colon cancer cells = experiment: Effect of agents on growth of HCA-7 cells; assay type: cell-based; settings: Homo sapiens, 168 h time point, cell counts
Procedure: as §1

[4] = Metabolite characterisation in plasma and tissues of dosed mice; assay type: in vivo, mouse; settings: 240 mg/kg i.g., HPLC cochromatography and mass spectrometry
Procedure: The vehicle was glycerol formal, and the dose volume approximately 10 ml kg^−1. […] Mice were killed by terminal gaseous anaesthesia at 10, 30, 60 or 120 min postdosing. Blood was collected by cardiac puncture, and plasma was obtained by centrifugation. The liver, kidney, lung, heart, brain and gut were excised, and scrapings were obtained from small intestine and colon. Tissues were snap-frozen (liquid nitrogen) and stored at −80°C until analysis.
Tissues were homogenised (1 : 1 volume to tissue mass ratio) in 50 mM Hepes buffer (Sigma, Poole, UK) using a hand-held glass homogeniser. […] After vigorous shaking, mixtures were kept on ice (5–10 min) and centrifuged (2800 g, 10 min, 4°C). The supernatants were dried under a stream of nitrogen and reconstituted in mobile phase (100 μl).
HPLC analysis was performed using a Varian Prostar HPLC system (Varian, UK) with a Pro-Star 230 solvent delivery system, a Pro-Star 310 UV–Vis detector, a Pro-Star 363 Fluorescence detector, a 410 Varian autosampler and an Ultracarb C18 column (4.6 mm × 250 mm, 5 μm, Phenomenex, UK). […]
Mass spectrometry was performed using a Quattro Bio-Q tandem quadrupole mass spectrometer upgraded to Quattro MK II specifications (Micromass, Manchester, UK) with a pneumatically assisted electrospray interface. Samples were analysed in positive ion mode.

[5] = system: transformed human lung-derived cells; parameters: method as in Lu et al, 2001; settings: ref Lu et al, 2001; cited from earlier work
[6] = assay type: in vivo, mouse; settings: agents at 0.2% in the diet for 2 weeks; result not shown
Procedure: ). Both agents were rapidly cleared from blood and tissues within an hour of administration (Figure 3). […] DMU 212 levels reached a peak after 10 min, except in the case of the colon, in which the peak occurred after 30 min. The peak levels for DMU 212 were 5 μM in the plasma and 8, 11, 11, 5, 10, 7600 and 330 nmols g^−1 tissue in the liver, kidney, lung, brain, heart, small intestinal and colonic mucosae, respectively. We performed a preliminary experiment in order to explore whether the difference in gastrointestinal levels would also be observed when the agents are administered with the diet, the route often used in preclinical cancer chemoprevention studies. Agents were admixed with the diet at 0.2% and fed for 2 weeks.

[7] = rats, ref Verschoyle et al, unpublished, cited from earlier work
[8] = plasma and tissues (for DMU 212 except colon), 10 min was the first time point

Compound | peak concentration ([2]; brain) [nmols g^−1 tissue] | AUC ([2]; brain) | peak concentration ([2]; colonic mucosa) [nmols g^−1 tissue] | AUC ([2]; colonic mucosa) | peak concentration ([2]; heart) [nmols g^−1 tissue] | AUC ([2]; heart) | AUC ([2]; intestinal mucosa) | peak concentration ([2]; kidney) [nmols g^−1 tissue] | AUC ([2]; kidney) | peak concentration ([2]; liver) [nmols g^−1 tissue] | AUC ([2]; liver) | peak concentration ([2]; lung) [nmols g^−1 tissue] | AUC ([2]; lung) | time at which levels peaked [2, 8] [min] | peak concentration ([2]; plasma) [µM] | AUC ([2]; plasma) | peak concentration ([2]; small intestinal mucosa) [nmols g^−1 tissue] | microsomal biotransformation (HPLC peaks besides parent) [3] | also measured
Oc1ccc(/C=C/c2cc(O)cc(O)c2)cc1 [resveratrol, trans-3,5,4′-trihydroxystilbene, reference compound] | 1.2 | 103 nmoles ml^−1 or g^−1 min | 30 | 2869 nmoles ml^−1 or g^−1 min | 75 | 2072 nmoles ml^−1 or g^−1 min | 36 690 nmoles ml^−1 or g^−1 min | 16 | 785 nmoles ml^−1 or g^−1 min | 51 | 2150 nmoles ml^−1 or g^−1 min | 50 | 1123 nmoles ml^−1 or g^−1 min | 10 | 32 | 863 nmoles ml^−1 or g^−1 min | 960 | did not yield any peak in addition to that of the parent substrate | IC50 ([1]; HCA-7 and HT-29 cells): 6 to 26 µM; IC50 (HT-29 colon cancer cells; HT-29 cells, 168 h time point, cell counts): 19.9 ± 0.3 µM
COc1ccc(C=Cc2cc(OC)c(OC)c(OC)c2)cc1 [DMU 212, 3,4,5,4′-tetramethoxystilbene] | 5 | 193 nmoles ml^−1 or g^−1 min | 330 | 19 256 nmoles ml^−1 or g^−1 min | 10 | 750 nmoles ml^−1 or g^−1 min | 369 315 nmoles ml^−1 or g^−1 min | 11 | 566 nmoles ml^−1 or g^−1 min | 8 | 432 nmoles ml^−1 or g^−1 min | 11 | 778 nmoles ml^−1 or g^−1 min | 10 | 5 | 246 nmoles ml^−1 or g^−1 min | 7600 | afforded peaks in addition to that of parent DMU 212 | IC50 (HCA-7 colon cancer cells): 6 ± 0.2 µM; metabolism in mice in vivo [4]: underwent metabolic hydroxylation or single and double O-demethylation; concentration required to cause significant arrest of transformed lung cell growth in vitro [5]: 10 µM; IC50 [1]: 6 to 26 µM; time at which levels peaked ([2]; colon): 30 min; factor by which peak level exceeded the concentration arresting transformed lung cell growth (10 μM) ([2]; small intestinal mucosa): 760; colonic levels of DMU 212 relative to those of resveratrol [6]: two-fold; toxicity ([7]; single doses of up to 40 mg kg^−1 i.v.): devoid of any toxicity; toxicity ([7]; single doses of up to 400 mg kg^−1 p.o.): devoid of any toxicity; IC50 (HT-29 colon cancer cells; HT-29, 168 h): 11.3 ± 1.1 µM

From article PMC2409587 (British Journal of Cancer, 2004)
